In patent publication EP0626016B1, “[…] […]” (BRITISH TECHNOLOGY GROUP LIMITED, priority 1992, dated 1993):

Assays:
[1] = target: T1, Anti-mouse IgG (whole molecule) peroxidase conjugate (Armoracia rusticana, UniProt P00433); experiment: Assay of peroxidase-antibody conjugate utilizing PBBA (Example 5); type: biochemical; conditions: for Signal (with PBBA): 40µl of PBBA 0.01 mg/ml; for Signal: Background: with PBBA
T1 sequence (P00433 31-338 limits assumed): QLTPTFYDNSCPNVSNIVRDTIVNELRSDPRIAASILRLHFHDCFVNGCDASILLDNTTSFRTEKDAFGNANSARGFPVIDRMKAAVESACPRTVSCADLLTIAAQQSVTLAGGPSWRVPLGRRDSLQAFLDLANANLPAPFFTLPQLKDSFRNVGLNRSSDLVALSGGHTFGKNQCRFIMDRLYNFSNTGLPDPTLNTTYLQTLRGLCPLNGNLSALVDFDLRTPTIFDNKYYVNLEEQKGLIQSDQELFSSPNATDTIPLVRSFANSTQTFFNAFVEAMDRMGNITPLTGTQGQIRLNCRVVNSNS
Description: Anti-mouse IgG (whole molecule) peroxidase conjugate (Sigma Chemical Co.) was diluted (1:5000) in 0.1 mol/l Tris buffer (pH 8.6). The luminol-hydrogen peroxide was prepared as described previously. The following reagents were added to a cuvette: 100µl of luminol-hydrogen peroxide (1:10 dilution), either 40µl of PBBA (0.01 mg/ml in 0.1 mol/l Tris buffer) or as a control, 40µl of Tris buffer (0.1 mol/l, pH 8.6), and different amounts of anti-mouse IgG (5µl, 10µl, 20µl, 30µl, 40µl). The reagents were mixed and the light emission was measured using a Berthold Biolumat LB9500C.

HRP = target: T2, HRP (Armoracia rusticana, UniProt P00433); experiment: Effect of fixed PBBA on light output with varying amounts of HRP (Example 1, part 2); type: biochemical, horseradish; conditions: for Signal (with PBBA): 40µl of PBBA 0.01mg/ml, after 5 minutes; for Signal: Background ratio: with PBBA
T2 construct: purchased Sigma Chemical Co
T2 sequence (P00433 31-338): T1 sequence (P00433 31-338 limits assumed)
Description: The above experiment was repeated this time keeping the amount of PBBA enhancer fixed and varying the amount of HRP. The reagents used were 100µl of luminol-hydrogen peroxide, either (a) 40µl of PBBA (0.01mg/ml in 0.lmol/l Tris buffer, pH 8.6) or (b) as a control, 40µl of Tris buffer (0.1mol/l, pH 8.6) and various amounts of HRP (range 5µl to 40µl of 1:50,000 dilution of a lmg/ml stock solution).
The reagents were mixed and light output recorded after 5 minutes on a Berthold Biolumat LB9500C. […] An improved signal:background ratio is shown by comparing results with HRP present with the zero HRP results.

[2] = in the presence of PBBA, result in words

Signal (with PBBA) ([1]; Anti-mouse IgG-HRP 0 (µl)): 18,832
Signal (with PBBA) ([1]; Anti-mouse IgG-HRP 5 (µl), 1:5000 dilution): 27,665
Signal: Background ([1]; Anti-mouse IgG-HRP 5 (µl)): 1.5
Signal (with PBBA) ([1]; Anti-mouse IgG-HRP 10 (µl), 1:5000 dilution): 32,849
Signal: Background ([1]; Anti-mouse IgG-HRP 10 (µl)): 1.7
Signal (with PBBA) ([1]; Anti-mouse IgG-HRP 20 (µl), 1:5000 dilution): 68,994
Signal: Background ([1]; Anti-mouse IgG-HRP 20 (µl)): 3.7
Signal (with PBBA) ([1]; Anti-mouse IgG-HRP 30 (µl), 1:5000 dilution): 407,087
Signal: Background ([1]; Anti-mouse IgG-HRP 30 (µl)): 21.6
light emission [1, 2]: increased
signal to background ratio for the assay of the HRP conjugate [1, 2]: significantly improved
Signal (with PBBA) (HRP; HRP 0 pg): 9,125
Signal (with PBBA) (HRP; HRP 100 pg): 15,861
Signal: Background ratio (HRP; HRP 100 pg): 1.7
Signal (with PBBA) (HRP; HRP 200 pg): 22,895
Signal: Background ratio (HRP; HRP 200 pg): 2.5
Signal (with PBBA) (HRP; HRP 400 pg): 38,495
Signal: Background ratio (HRP; HRP 400 pg): 4.2
Signal (with PBBA) (HRP; HRP 600 pg): 61,491
Signal: Background ratio (HRP; HRP 600 pg): 6.7
Signal (with PBBA) (HRP; HRP 800 pg): 105,972
Signal: Background ratio (HRP; HRP 800 pg): 11.6
light output of the chemiluminescent reaction (HRP; at all concentrations tested, result in words): increased the light output
SMILES: OB(O)c1ccc(Br)cc1 [PBBA, para-bromophenylboronic acid]
